The values below come from patent US10092584B2 (Achillion Pharmaceuticals, Inc., priority 2015, dated 2018).

Molecules are shown by their SMILES. Where only a bound is given, the exact number is not on record here.

T1 sequence (P00746 26-253): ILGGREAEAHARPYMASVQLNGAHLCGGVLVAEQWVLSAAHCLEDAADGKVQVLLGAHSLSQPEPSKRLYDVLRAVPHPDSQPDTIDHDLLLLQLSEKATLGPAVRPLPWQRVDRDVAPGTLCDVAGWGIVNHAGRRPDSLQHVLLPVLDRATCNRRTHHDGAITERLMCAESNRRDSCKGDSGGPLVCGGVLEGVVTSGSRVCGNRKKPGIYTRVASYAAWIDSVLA

One test concerns the target T1, Human Factor D (Homo sapiens, UniProt P00746).
T1 construct: purified from human serum; purchased Complement Technology, Inc; host or cells: human serum
Nature of the test: Human Factor D assay (Example 8). In kind it is biochemical.
Settings: not given
The procedure:
Human Factor D (purified from human serum, Complement Technology, Inc.) at 80 nM final concentration was incubated with test compound at various concentrations for 5 minutes at room temperature in 50 mM Tris, 1M NaCl, pH 7.5. A synthetic substrate Z-L-Lys-SBzl and DTNB (Ellman's reagent) are added to final concentrations of 100 μM each. […] IC50 values are calculated by nonlinear regression of complement Factor D reaction rates as a function of test compound concentration.
Usually IC50 stands for the concentration at which inhibition is half-maximal. As for `CC(=O)c1cn(CC(=O)N2[C@H](C(=O)NCc3cccc(Cl)c3F)C[C@@H]3CCCC[C@@H]32)c2ccccc12` [Compound 1, (2S,3aS,7aS)-1-(2-(3-acetyl-1H-indol-1-yl)acetyl)-N-(3-chloro-2-fluorobenzyl)octa-hydro-1H-indole-2-carboxamide], the half-maximal inhibitory concentration (IC50) was under 1 µM.

For `CC(=O)c1cn(CC(=O)N2C[C@H](F)[C@@H](OCC3CC3)[C@H]2C(=O)NCc2cccc(Cl)c2F)c2cc(O)ccc12` [Compound 21, (2S,3S,4S)-1-(2-(3-acetyl-6-hydroxy-1H-indol-1-yl)acetyl)-N-(3-chloro-2-fluorobenzyl)-3-(cyclopropylmethoxy)-4-fluoropyrrolidine-2-carboxamide], the IC50 was under 1 µM.

Compound `O=C(c1cn(CC(=O)N2[C@@H]3C[C@@H]3C[C@H]2C(=O)NCc2cccc(Cl)c2F)c2ccccc12)C1CC1` [Compound 22, (1R,3S,5R)-N-(3-chloro-2-fluorobenzyl)-2-(2-(3-(cyclopropanecarbonyl)-1H-indol-1-yl)acetyl)-2-azabicyclo[3.1.0] hexane-3-carboxamide] showed an IC50 of under 1 µM.

Regarding `CC(=O)c1cn(CC(=O)N2CC(F)C(OCC3CC3)[C@H]2C(=O)NCc2cccc(Cl)c2F)c2cc(O)ccc12` (stereo partly drawn) [Compound 25, (2S)-1-(2-(3-acetyl-6-hydroxy-1H-indol-1-yl)acetyl)-N-(3-chloro-2-fluorobenzyl)-3-(cyclopropylmethoxy)-4-fluoropyrrolidine-2-carboxamide], the IC50 is under 1 µM.

`COc1ccc2c(O[C@@H]3C[C@@H](C(=O)NCc4cccc(Cl)c4F)N(C(=O)Cn4cc(C(C)=O)c5ccccc54)C3)cc(-c3ccccc3)nc2c1` [Compound 29, (2S,4R)-1-(2-(3-acetyl-1H-indol-1-yl)acetyl)-N-(3-chloro-2-fluorobenzyl)-4-(7-methoxy-2-phenylquinolin-4-yloxy)pyrrolidine-2-carboxamide] had an IC50 of over 10 µM.

The compound `CC(=O)c1cn(CC(=O)N2[C@H](C(=O)NCc3cccc(Cl)c3F)C[C@@H]3CCCC[C@@H]32)c2cc(O)ccc12` [Compound 35, (2S,3aS,7aS)-1-(2-(3-acetyl-6-hydroxy-1H-indol-1-yl)acetyl)-N-(3-chloro-2-fluorobenzyl)octa-hydro-1H-indole-2-carboxamide] came in with a half-inhibitory concentration (IC50) of under 1 µM.

Still in this test, the particulars now being: Table 1; Human Factor D 80 nM, substrate Z-L-Lys-SBzl; read-out: IC50.
As to `CC(=O)n1cc(NC(=O)[C@@H]2C[C@@H](F)CN2C(=O)NCc2cccc(Cl)c2F)c2ccccc21` [Compound 3, (2S,4R)-N2-(1-acetyl-1H-indol-3-yl)-N1-(3-chloro-2-fluorobenzyl)-4-fluoropyrrolidine-1,2-dicarboxamide], the half-maximal inhibitory concentration (IC50) is over 10 µM.

Regarding `CC(=O)n1cc(NC(=O)[C@@H]2C[C@H](F)CN2C(=O)NCc2cccc(Cl)c2F)c2ccccc21` [Compound 4, (2S,4S)-N2-(1-acetyl-1H-indol-3-yl)-N1-(3-chloro-2-fluorobenzyl)-4-fluoropyrrolidine-1,2-dicarboxamide], the IC50 was over 10 µM.

Regarding `CC(=O)n1cc(NC(=O)[C@@H]2C[C@H](F)CN2C(=O)NCc2ccccc2)c2ccccc21` [Compound 5, (2S,4S)-N2-(1-acetyl-1H-indol-3-yl)-N1-benzyl-4-fluoropyrrolidine-1,2-dicarboxamide], the 50% inhibitory concentration (IC50) is over 10 µM.

Consider `NC(=O)n1cc(NC(=O)N2C[C@H](F)C[C@H]2C(=O)NS(=O)(=O)c2cccc(Cl)c2F)c2ccccc21` [Compound 6, (2S,4R)-N1-(1-carbamoyl-1H-indol-3-yl)-N2-(3-chloro-2-fluorophenylsulfonyl)-4-fluoropyrrolidine-1,2-dicarboxamide], for which the half-inhibitory concentration (IC50) was over 10 µM.

As to `CC(=O)n1cc(NC(=O)N2C[C@H](F)C[C@H]2C(=O)NS(=O)(=O)c2cccc(Cl)c2F)c2ccccc21` [Compound 7, (2S,4R)-N1-(1-acetyl-1H-indol-3-yl)-N2-(3-chloro-2-fluorophenylsulfonyl)-4-fluoropyrrolidine-1,2-dicarboxamide], the 50% inhibitory concentration (IC50) was over 10 µM.

For the compound `CC(=O)n1cc(NC(=O)[C@H]2CC(F)(F)CN2C(=O)NCc2cccc(Cl)c2F)c2ccccc21` [Compound 8, (R)-N2-(1-acetyl-1H-indol-3-yl)-N1-(3-chloro-2-fluorobenzyl)-4,4-difluoropyrrolidine-1,2-dicarboxamide], the half-maximal inhibitory concentration (IC50) was over 10 µM.

For `CC(=O)n1cc(NC(=O)[C@H]2CCCN2C(=O)NCc2cccc(Cl)c2F)c2ccccc21` [Compound 9, (R)-N2-(1-acetyl-1H-indol-3-yl)-N1-(3-chloro-2-fluorobenzyl)pyrroli-dine-1,2-dicarboxamide], the IC50 is over 10 µM.

With `CC(=O)c1cn(CC(=O)N2C[C@H](F)C[C@H]2c2ncc(-c3cccc(Cl)c3)[nH]2)c2ccccc12` [Compound 11, 2-(3-acetyl-1H-indol-1-yl)-1-((2S,4R)-2-(5-(3-chlorophenyl)-1H-imidazol-2-yl)-4-fluoropyrrolidin-1-yl)ethanone], the half-maximal inhibitory concentration (IC50) was over 10 µM.

For `CC(=O)c1cn(CC(=O)N2C[C@H](F)C[C@H]2c2nc3cc(Cl)ccc3[nH]2)c2ccccc12` [Compound 15], the IC50 is over 10 µM.

`CC(=O)n1cc(NC(=O)[C@H]2CCCN2C(=O)Nc2cccc(OC(F)(F)F)c2F)c2ccccc21` [Compound 16, (R)-N2-(1-acetyl-1H-indol-3-yl)-N1-(2-fluoro-3-(trifluoromethoxy)phenyl)pyrrolidine-1,2-dicarboxamide]: the IC50 is over 10 µM.

As to `CC(=O)n1cc(NC(=O)[C@H]2CC(F)(F)CN2C(=O)Cc2cccc(Cl)c2F)c2ccccc21` [Compound 17, (R)-N-(1-acetyl-1H-indol-3-yl)-1-(2-(3-chloro-2-fluorophenyl)acetyl)-4,4-difluoropyrrolidine-2-carboxamide], the IC50 is over 10 µM.

As for `CC(=O)c1cn(CC(=O)N2CC[C@@H](OCC3CC3)[C@H]2C(=O)NCc2cccc(Cl)c2F)c2ccccc12` [Compound 18, (2S,3R)-1-(2-(3-acetyl-1H-indol-1-yl)acetyl)-N-(3-chloro-2-fluorobenzyl)-3-(cyclopropylmethoxy) pyrrolidine-2-carboxamide], the half-maximal inhibitory concentration (IC50) is under 1 µM.

`COc1ccc2c(O[C@@H]3C[C@@H](C(=O)NCc4cccc(Cl)c4F)N(C(=O)Nc4cn(C(C)=O)c5ccccc45)C3)cc(-c3ccccc3)nc2c1` [Compound 19, (2S,4R)-N1-(1-acetyl-1H-indol-3-yl)-N2-(3-chloro-2-fluorobenzyl)-4-(7-methoxy-2-phenylquinolin-4-yloxy)pyrrolidine-1,2-dicarboxamide]: the 50% inhibitory concentration (IC50) was over 10 µM.

Consider `CC(=O)n1cc(NC(=O)Nc2cn(C(C)=O)c3ccccc23)c2ccccc21` [Compound 20, 1,3-bis(1-acetyl-1H-indol-3-yl)urea], for which the IC50 is over 10 µM.

As to `O=C(c1cn(CC(=O)N2C[C@H](F)C[C@H]2C(=O)NCc2cccc(Cl)c2F)c2ccccc12)C1CC1` [Compound 24, (2S,4R)-N-(3-chloro-2-fluorobenzyl)-1-(2-(3-(cyclopropanecarbonyl)-1H-indol-1-yl)acetyl)-4-fluoropyrrolidine-2-carboxamide], the IC50 is under 1 µM.

As for `NC(=O)N1CC(NC(=O)[C@@H]2CCC[C@H]2C(=O)NCc2cccc(Cl)c2F)c2ccccc21` (stereo partly drawn) [Compound 26, (1R,2R)-N1-(1-carbamoylindolin-3-yl)-N2-(3-chloro-2-fluorobenzyl)cyclo-pentane-1,2-dicarboxamide], the half-maximal inhibitory concentration (IC50) is over 10 µM.

On to `CC(=O)c1cn(CC(=O)N2C[C@H](F)C[C@H]2Cn2cc(-c3ccc(F)cc3)nn2)c2ccccc12` [Compound 27, 2-(3-acetyl-1H-indol-1-yl)-1-((2S,4R)-4-fluoro-2-((4-(4-fluorophenyl)-1H-1,2,3-triazol-1-yl)methyl)pyrrolidin-1-yl)ethanone], for which the IC50 is over 10 µM.

For the compound `NC(=O)n1cc(NC(=O)N2C[C@H](F)C[C@H]2Cn2cc(-c3ccc(F)cc3)nn2)c2ccccc21` [Compound 28, 3-((2S,4R)-4-fluoro-2-((4-(4-fluorophenyl)-1H-1,2,3-triazol-1-yl)methyl)pyrrolidine-1-carboxamido)-1H-indole-1-carboxamide], the half-inhibitory concentration (IC50) is over 10 µM.

As to `NC(=O)N1C[C@H](F)C[C@H]1Cn1cc(-c2ccc(F)c(Cl)c2)nn1` [Compound 30, (2S,4R)-2-((4-(3-chloro-4-fluorophenyl)-1H-1,2,3-triazol-1-yl)methyl)-4-fluoropyrrolidine-1-carboxamide], the half-maximal inhibitory concentration (IC50) was over 10 µM.

For the compound `NC(=O)n1cc(NC(=O)C2=C(C(=O)NCc3cccc(Cl)c3F)CCC2)c2ccccc21` [Compound 31, N1-(1-carbamoyl-1H-indol-3-yl)-N2-(3-chloro-2-fluorobenzyl)cyclo-pent-1-ene-1,2-dicarboxamide], the IC50 is over 10 µM.

`CC(=O)c1cn(CC(=O)N2C[C@H](F)C[C@H]2C(=O)N2Cc3ccccc3C2)c2ccccc12` [Compound 33, 2-(3-acetyl-1H-indol-1-yl)-1-((2S,4R)-4-fluoro-2-(isoindoline-2-carbonyl)pyrrolidin-1-yl)ethanone]: the IC50 is over 10 µM.

Consider `CC(=O)c1cn(CC(=O)N2C[C@H](F)C[C@H]2C(=O)N(C)Cc2cccc(Cl)c2F)c2ccccc12` [Compound 34, (2S,4R)-1-(2-(3-acetyl-1H-indol-1-yl)acetyl)-N-(3-chloro-2-fluorobenzyl)-4-fluoro-N-methylpyrrolidine-2-carboxamide], for which the half-inhibitory concentration (IC50) was over 10 µM.

For `N#Cc1cn(CC(=O)N2C[C@H](F)C[C@H]2C(=O)NCc2cccc(Cl)c2F)c2ccccc12` [Compound 36, (2S,4R)-N-(3-chloro-2-fluorobenzyl)-1-(2-(3-cyano-1H-indol-1-yl)acetyl)-4-fluoropyrrolidine-2-carboxamide], the IC50 is under 1 µM.

For the compound `O=C1CCCc2c1c1ccccc1n2CC(=O)N1C[C@H](F)C[C@H]1C(=O)NCc1cccc(Cl)c1F` [Compound 37, (2S,4R)-N-(3-chloro-2-fluorobenzyl)-4-fluoro-1-(2-(4-oxo-3,4-dihydro-1H-carbazol-9(2H)-yl)acetyl)pyrrolidine-2-carboxamide], the IC50 was under 1 µM.
